Data taken from patent US20060084615A1, “Puerarin derivatives and their medical uses” (priority 2004, published 2006).

Experiments:
[1] = tested on: myocardial ischemic rats induced by posterior pituitary injection; assay: Acute myocardial ischemia induced by posterior pituitary extract injection, ECG T wave variation; assay type: in vivo, SD rats; conditions: for Amplitude of T wave: i.g. 5 days plus day 6, X ± SD, n = 10; for Effect against myocardial ischemia in rats induced by posterior pituitary injection: doses 0.8 g/kg puerarin, 1.12 g/kg 4ac, 1.20 g/kg 5ac, 1.28 g/kg 6ac (equivalent to 0.8 g/kg puerarin)
Experimental: Puerarin was purchased from Beijing Union Pharmaceutical Factory (PRC). Puerarin derivatives 4ac, 5ac and 6ac were supplied by The Hong Kong Polytechnic University. The puerarin was dissolved in 1:1 of PEG400 and sterilized distilled water to make 0.8 g/kg body weight, 10 ml/kg body weight solutions for i.g. feeding.
Puerarin derivative 4ac was dissolved in 1:1 of PEG400 and sterilized distilled water to make 1.12 g/kg, 10 ml/kg solution for intra-gastro (i.g.) feeding. Puerarin derivative 5ac was dissolved in 1:1 of PEG400 and sterilized distilled water to make 1.20 g/kg, 10 ml/kg solution for i.g. feeding. Puerarin derivative 6ac was dissolved in 1:1 of PEG400 and sterilized distilled water to make 1.28 g/kg, 10 ml/kg solution for ig feeding. The concentrations of each solution were selected such that 0.8 g/kg of equivalent puerarin will be administered to each animal.
Propranolol hydrochloride at 10 mg/tablet, was from the Shantou Jinshi Pharmaceuticals (PRC, batch no: 020802). Propranolol hydrochloride is a drug prescribed for myocardial ischemia. It is expected to decrease the T wave elevation in ECG during myocardial ischemia. The drug was dissolved in sterilized distilled water to make a 0.2 mg/ml, 10 ml/kg solution for i.g. feeding.
Sixty SPF grade SD rats weighing 200±20 g of both sexes were grouped evenly into six groups according to their weight and sex, and fed i.g. according to the following protocol: • a) Normal: distilled water 10 ml/kg; • b) Positive control: propranolol hydrochloride […], 10 ml/kg; • c) Puerarin solution: puerarin 0.8 g/kg, 10 ml/kg; • d) Puerarin derivative 4ac solution: 4ac 1.12 g/kg, 10 ml/kg; • e) Puerarin derivative 5ac solution: 5ac 1.20 g/kg, 10 ml/kg; • f) Puerarin derivative 6ac solution: 6ac 1.28 g/kg, 10 ml/kg.
The rats were administered the respective treatments for five consecutive days. On the sixth day, one hour after the administration of the treatment, the rats were anesthetized with 3% pentobarbital sodium at a dose of 40 mg/kg i.p. Two terminal leads were connected to the rats to record the normal electrocardiograph (ECG).
When the ECG reading became steady, 1 u/kg of posterior pituitary extract injection (obtained from the Nanjing Xintian Biochemical Pharmaceuticals Company Ltd; batch no 020601) was given intraveneously at the tail vein. Posterior pituitary extract induces acute myocardial ischemia. On ECG, the extract causes the T wave to elevate, flatten and sometimes invert. It also elevates the ST segment and lengthens the PR and QT intervals.
The ECG was recorded immediately for 30 minutes. The variations in T wave were calculated and analyzed statistically.

[2] = Bioavailability of orally-administered puerarin derivatives (serum pharmacokinetics by HPLC)
Experimental: Agilent 1100 HPLC, DAD diode, HP1100 chromatography workstation and Agilent XDB-C18 column (250 mm×4.6 mm D, 5 μm) were used. The pre-column is Agilent XDB-C18 column (12.5 mm×4.6 mm D, 5 μm). Gradient elution was carried according to Table 1 below: […]
Sprague-Dawley (SD) rats weighing 180±20 g, both male and female were provided by the Laboratory Animal Centre of the Guangzhou Traditional Chinese Medicine (TCM) University.
Two hundred and sixty SD rats were randomly divided into 20 groups with 13 rats in each group. The rats were fasted for one day before the test.
Puerarin, 4ac, 5ac and 6ac was dissolved in sterilized water to produce suspension of final dosage of 400 mg/kg, 560 mg/kg, 600 mg/kg and 640 mg/kg, 10 ml/kg and administered orally to the rats.
At t=10, 20, 30, 45, 60, 90, 120 min, 2 h, 4 h, 6 h, 7 h, 8 h and 12 h after administration, 3 ml of blood was collected from the femoral vein of each animal and kept in a centrifuge tube at room temperature for 0.5 h. The blood was centrifuged at 3000 r/min for 15 min and the serum was taken for analysis.
Serum (0.5 ml) was added with 0.2 ml methanol and mixed with a vortex mixer for 1 min. The mixture was then centrifuged at 3000 r/min for 15 min. The supernatant was dried by nitrogen gas flow and the residue was dissolved in 0.2 ml methanol. The mixture was again centrifuged at 10000 r/min for 10 min and the supernatant subjected to HPLC analysis.
The samples were treated, applied and as stated in section 2.2, and the serum concentration of each compound was calculated by the one-point external standard method. The calculated data were processed using the 3P97 pharmacokinetics statistics software supplied by the Mathematics Committee of the China Pharmacology Association.

[3] = 5 s after posterior pituitary injection
[4] = 15 s after posterior pituitary injection
[5] = 30 s after posterior pituitary injection
[6] = 2 min after posterior pituitary injection
[7] = 5 min after posterior pituitary injection
[8] = 10 min after posterior pituitary injection
[9] = oral suspension, SD rats, serum puerarin by HPLC, puerarin 400, 4ac 560, 5ac 600, 6ac 640 mg/kg

Row | Structure (SMILES) | Amplitude of T wave [1, 3] | Amplitude of T wave [1, 4] | Amplitude of T wave [1, 5] | Amplitude of T wave [1, 6] | Amplitude of T wave [1, 7] | Amplitude of T wave [1, 8] | Pharmacokinetic compartment model fitted (3P97 software) ([2]; oral, SD rats) | Effect against myocardial ischemia in rats induced by posterior pituitary injection [1] | AUC(0-∞) = area under concentration-time curve ([2]; rat, in vivo, po, 640 mg/kg) | CL = total body clearance ([2]; rat, in vivo, po, 640 mg/kg) | Pharmacokinetic compartment model fitted (3P97 software) ([2]; rat, in vivo, po) | other results
1 | CC(C)NCC(O)COc1cccc2ccccc12.Cl (stereo not shown) [+ve control, Propranolol hydrochloride, reference compound] | 16.11 ± 5.30 μV | 18.51 ± 9.26 μV | 22.10 ± 11.23 μV | 30.41 ± 11.58 μV | 26.62 ± 10.99 μV | 22.09 ± 11.31 μV | – | – | – | – | – | –
2 | CC(=O)OC[C@H]1O[C@@H](c2c(OC(C)=O)ccc3c(=O)c(-c4ccc(OC(C)=O)cc4)coc23)[C@H](OC(C)=O)[C@@H](OC(C)=O)[C@@H]1OC(C)=O [Compound 6ac, Hexa-0-acetyl puerarin] | 16.33 ± 9.18 μV | 29.09 ± 16.50 μV | 39.12 ± 15.21 μV | 41.05 ± 15.60 μV | 29.14 ± 10.60 μV | 22.11 ± 9.81 μV | two-compartment open model | effective | – | – | – | AUC(0-∞) = area under concentration-time curve [2, 9]: 3149.69 ± 467.26 (μg/ml)min; C (max) = maximum concentration reached by the compound [2, 9]: 4.9324 ± 0.0695 µg/mL; CL = total body clearance [2, 9]: 0.1696 ± 0.1206 mg/kg/min/µg/mL; T(peak) = time the compound takes to reach the absorption peak [2, 9]: 81.39 ± 10.02 min; t1/2(a) = half-life of absorption [2, 9]: 1.86617 ± 1.811 h; t1/2(β) = half-life of clearance [2, 9]: 44.4162 ± 6.3323 h
3 | O=c1c(-c2ccc(O)cc2)coc2c([C@@H]3O[C@H](CO)[C@@H](O)[C@H](O)[C@H]3O)c(O)ccc12 [Puerarin] | 18.06 ± 10.09 μV | 25.69 ± 11.21 μV | 31.22 ± 14.59 μV | 39.20 ± 16.11 μV | 29.10 ± 16.23 μV | 25.01 ± 10.40 μV | two-compartment open model | effective | 2729.94 ± 491.99 (μg/ml)min | 0.2032 ± 0.0541 mg/kg/min/µg/mL | – | half-life ([2]; both, Sprague-Dawley, rat, in vivo, po, 640 mg/kg, t1/2(a) = half-life of absorption): 0.89 ± 0.189 h; half-life ([2]; both, Sprague-Dawley, rat, in vivo, po, 640 mg/kg, t1/2(β) = half-life of clearance): 1.015 ± 0.00719 h
4 | CC(=O)OCC1OC(c2c(O)ccc3c(=O)c(-c4ccc(O)cc4)coc23)C(OC(C)=O)C(OC(C)=O)C1OC(C)=O (stereo not shown) [Compound 4ac, 2″,3″,4″,6″-0-tetraacetylpuerarin] | 15.09 ± 7.62 μV | 23.23 ± 10.69 μV | 35.40 ± 10.93 μV | 36.51 ± 16.02 μV | 25.60 ± 14.23 μV | 25.41 ± 10.21 μV | – | effective | 6104.81 ± 275.29 (μg/ml)min | 0.1030 ± 0.0163 mg/kg/min/µg/mL | one-compartment open model | C(max) relative to that of puerarin ([2]; both, Sprague-Dawley, rat, in vivo, po): 1.90 folds; AUC compared with puerarin (t test) ([2]; rat, in vivo, po): significantly greater; AUC relative to that of puerarin ([2]; rat, in vivo, po): 2.24 folds; Bioavailability compared with puerarin ([2]; rat, in vivo, po): higher than puerarin and other derivatives
5 | CC(=O)OCC1OC(c2c(OC(C)=O)ccc3c(=O)c(-c4ccc(O)cc4)coc23)C(OC(C)=O)C(OC(C)=O)C1OC(C)=O (stereo not shown) [Compound 5ac, 7,2″,3″,4″,6″-0-pentaacetylpuerarin] | 19.09 ± 6.20 μV | 29.42 ± 9.39 μV | 37.61 ± 13.43 μV | 40.11 ± 16.04 μV | 24.50 ± 13.63 μV | 24.39 ± 14.28 μV | – | effective | 4566.95 ± 762.64 (μg/ml)min | 0.1011 ± 0.0425 mg/kg/min/µg/mL | two-compartment open model | t1/2(a) = half-life of absorption ([2]; rat, in vivo, po, 640 mg/kg): 0.368613 ± 0.311893 h; t1/2(β) = half-life of clearance ([2]; rat, in vivo, po, 640 mg/kg): 7.0838 ± 4.228 h
